# Test results from PMC5827971 (Cell, 2017).
# Columns and labels:
# [1] = target: T1, CLYBL (Homo sapiens, UniProt Q8N0X4); assay: HPLC-UV discontinuous assay, CoASH formation; type: biochemical; details: 20 mM glyoxylate, 2.5-200 µM acyl-CoA, 20 mM Tris pH 7.5, 5 mM MgCl2, 1 mM TCEP, 37 °C
# T1 sequence (Q8N0X4 23-340): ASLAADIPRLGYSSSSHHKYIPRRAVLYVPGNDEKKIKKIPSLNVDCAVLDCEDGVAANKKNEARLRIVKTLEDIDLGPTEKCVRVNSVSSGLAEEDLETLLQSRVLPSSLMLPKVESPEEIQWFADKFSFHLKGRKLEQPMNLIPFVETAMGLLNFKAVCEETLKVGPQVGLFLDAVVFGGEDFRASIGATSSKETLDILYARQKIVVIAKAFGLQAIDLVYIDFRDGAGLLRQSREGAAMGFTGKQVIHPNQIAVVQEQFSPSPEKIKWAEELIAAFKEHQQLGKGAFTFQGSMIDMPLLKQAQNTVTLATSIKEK
# [2] = target: T1, CLYBL; assay: HPLC-UV discontinuous assay, acetyl-CoA formation; type: biochemical; details: citramalyl-CoA lyase; 0.625-80 µM substrate, 20 mM Tris pH 7.5, 5 mM MgCl2, 1 mM TCEP, 37 °C
smiles,measurement,setting,value
CC(=O)SCCNC(=O)CCNC(=O)[C@H](O)C(C)(C)COP(=O)(O)OP(=O)(O)OC[C@H]1O[C@@H](n2cnc3c(N)ncnc32)[C@H](O)[C@@H]1OP(=O)(O)O [acetyl-CoA],KM,[1]; malate synthase,"KM values for acetyl-CoA or propionyl-CoA, the substrates in the forward reaction"
CC(C)(COP(=O)(O)OP(=O)(O)OC[C@H]1O[C@@H](n2cnc3c(N)ncnc32)[C@H](O)[C@@H]1OP(=O)(O)O)[C@@H](O)C(=O)NCCC(=O)NCCSC(=O)C[C@](C)(O)C(=O)O [citramalyl-CoA],KM,[2],The KM value for citramalyl-CoA is comparable to the KM values for acetyl-CoA or propionyl-CoA
CCC(=O)SCCNC(=O)CCNC(=O)[C@H](O)C(C)(C)COP(=O)(O)OP(=O)(O)OC[C@H]1O[C@@H](n2cnc3c(N)ncnc32)[C@H](O)[C@@H]1OP(=O)(O)O [propionyl-CoA],KM,[1]; methylmalate synthase,"KM values for acetyl-CoA or propionyl-CoA, the substrates in the forward reaction"
